We go through 14 compounds from patent US10954196B2, “Method for producing 5-hydroxy-1H-imidazole-4 carboxamide 3/4 hydrate” (FUJIFILM Corporation, priority 2017, dated 2021).

Data set [1] can be described thus: Test Example 3: coloring stability during storage (unwashed product). The format is physicochemical. As to conditions: light shielding, 60° C., 75% relative humidity, hydrate; for Color difference (ΔE): before vs after storage for 5 days, spectrophotometric color difference meter, reflection method; for Tone: visually observed after storage for 5 days, air atmosphere.

Data set [2] can be described thus: Test Example 1: test of coloring stability during storage (washed product). As to conditions: visually observed after storage for 5 days, air atmosphere, light shielding, 60° C., 75% relative humidity, hydrate. The format is physicochemical. The procedure:
About 1 g of the test substance was placed in a storage bag formed by stacking two 0.04 mm-thick polyethylene bags, sealed in each polyethylene bag, and stored for 5 days in an air atmosphere under the conditions of light shielding, 60° C., and 75% relative humidity. The tone of the test substance after the test was visually observed. In addition, a change in the color of the crystal before and after the test was measured with a spectrophotometric color difference meter to determine the color difference. Colorimeter: spectrophotometric color difference meter SE2000 manufactured by Nippon Denshoku Industries Co., Ltd. Measurement method: reflection method

For data set [3] the following is noted: as disclosed in Test Example 1 and Test Example 2 of WO2009/035168A; cited from earlier work.

Turning to `NC(=O)c1nc[nH]c1O.O` [Comparative Example 1, 5-hydroxy-1H-imidazole-4-carboxamide•¾ hydrate, reference compound], in data set [1], the “Color difference (ΔE)” value is 62.4 and the Tone result is on record as “Black blue”.
In the same order, the values of `NC(=O)c1nc[nH]c1O.O` [Comparative Example 2, 5-hydroxy-1H-imidazole-4-carboxamide•¾ hydrate, reference compound] are 51.4 and “Black blue”.
With `NC(=O)c1nc[nH]c1O.O` [Example 2, 5-hydroxy-1H-imidazole-4-carboxamide•¾ hydrate], in data set [1], the “Color difference (ΔE)” value worked out at 3.1 and the Tone entry is “White”. The Tone entry in data set [2] is on record as “White”.
For the compound `NC(=O)c1nc[nH]c1O.O` [Example 3, 5-hydroxy-1H-imidazole-4-carboxamide•¾ hydrate], in data set [1], the “Color difference (ΔE)” value is on record as 1.1 and the Tone entry is listed as “White”. In data set [2], the Tone result is on record as “White”.
For the compound `NC(=O)c1nc[nH]c1O.O` [Example 4, 5-hydroxy-1H-imidazole-4-carboxamide•¾ hydrate], in data set [1], the “Color difference (ΔE)” value is given as 2.3 and the Tone result was “White”. In addition, the Tone entry in data set [2] is listed as “White”.
As to `NC(=O)c1nc[nH]c1O.O` [Example 5, 5-hydroxy-1H-imidazole-4-carboxamide•¾ hydrate], in data set [1], the “Color difference (ΔE)” value was 4.1 and the Tone entry is “White”. The Tone result in data set [2] is “White”.
Turning to `NC(=O)c1nc[nH]c1O.O` [Example 7, 5-hydroxy-1H-imidazole-4-carboxamide•¾ hydrate], in data set [1], the “Color difference (ΔE)” value came to 1.0 and the Tone result is on record as “White”. Moreover, in data set [2], the Tone result is reported as “White”.
As to `NC(=O)c1nc[nH]c1O.O` [Example 8, 5-hydroxy-1H-imidazole-4-carboxamide•¾ hydrate], in data set [1], the “Color difference (ΔE)” value was found to be 1.4 and the Tone result was “White”. Also, the Tone entry in data set [2] is on record as “White”.
`NC(=O)c1nc[nH]c1O.O` [Example 9, 5-hydroxy-1H-imidazole-4-carboxamide•¾ hydrate]: in data set [1], the “Color difference (ΔE)” value turned out to be 0.9 and the Tone result is “White”. Further, in data set [2], the Tone entry is “White”.
For `NC(=O)c1nc[nH]c1O.O` [Example 10, 5-hydroxy-1H-imidazole-4-carboxamide•¾ hydrate], the “Color difference (ΔE)” value in data set [1] was 2.2. Besides, the Tone result in data set [1] and in data set [2] was “White” each time.
Consider `NC(=O)c1nc[nH]c1O.O` [Example 11, 5-hydroxy-1H-imidazole-4-carboxamide•¾ hydrate], for which, in data set [1], the “Color difference (ΔE)” value is on record as 1.6 and the Tone result is on record as “White”. For the same compound, the Tone result in data set [2] is recorded as “White”.
For the compound `NC(=O)c1nc[nH]c1O.O` [Example 12, 5-hydroxy-1H-imidazole-4-carboxamide•¾ hydrate], the Tone result in data set [1] and in data set [2] was “White” in each case.
In the case of `NC(=O)c1nc[nH]c1O` [compound A, 5-Hydroxy-1H-imidazole-4-carboxamide], in data set [3], the “Coloring stability (color change)” value was “changed color to indigo blue or blue”.
Consider `Cl.NC(=O)c1nc[nH]c1O` [hydrochloride of the compound A], for which the “Coloring stability (color change)” value in data set [3] is given as “stable”.
